Here are results for two substances from US20030008857A1, “Photodynamic therapy (PDT) in combination with factors that bind cell surface apoptosis-inducing receptors” (priority 1999, published 2003).

One test has as its system HeLa/Bcl-2 cells. The test is described as follows: MTT cell viability assay. It counts as cell-based. As for the experimental part: (§1) HeLa cells were from the American Type Culture Collection (Manassas, Va.). Cells were grown in Dulbecco's modified Eagles medium (DMEM) supplemented with penicillin (100 U/ml), streptomycin (100 μg/ml), 2 mM L-glutamine, 1 mM HEPES buffer, and 10% heat-inactivated fetal bovine serum (FBS). HeLa cells over-expressing Bcl-2 and Bcl-xL were generated as described (Vander Heiden et al.). Briefly, Bcl-2 and Bcl-xL inserts were cloned into an EcoRI site of a pSFFV-neo vector (Fuhlbrigge et al.). Vectors containing inserts, or no insert (neo), were transfected into HeLa cells by electroporation. After selection in G418 (Gibco/BRL Life Technologies), cells were cloned by limiting dilution and transfectants screened for Bcl-xL or Bcl-2 by Western blot analysis. Transfected cell lines were maintained in complete DMEM with G418 (10 μg/ml).
(§2) For treatments with TRAIL and PDT, cells were incubated with 0-100 ng/ml verteporfin for 60 min at 37° C. in complete DMEM with 2% FBS or incubated with medium alone. Cells were light protected or exposed to blue fluorescent light to give a total dose of 1 J/cm^2. For experiments where cells were treated with 0-1000 ng/ml TRAIL (BIOMOL, Plymouth Meeting, Pa.), this compound was added immediately after light treatment to HeLa cells in complete DMEM with 10% FBS. Cells were maintained at 37° C. with 5% CO2
(§3) To assess their viability, cells were cultured in 96-well microtiter plates and the MTT (3-(4,5)-dimethylthiazol-2-yl)-2,5-diphenyl tetrazolium bromide) calorimetric assay was performed as described (Mosmann et al.) with modifications. Following treatment, culture medium was decanted and replaced with complete DMEM containing 10% FBS. At 24 h following treatment, culture medium was aspirated and 50 μg of MTT in 100 μl of DMEM containing 2% FBS was added to each well. The reaction was stopped 2 h later by the addition of 150 μl of acidified isopropanol. Color development was measured at 590 nm with a microtiter plate reader. The result obtained for PDT, TRAIL or TRAIL plus PDT treatments was compared to the MTT value obtained for cells not given any treatment and expressed as percentages (%) of the control result.

Another test has as its system HeLa/neo cells. The test is described as follows: MTT cell viability assay. It counts as cell-based. As for the experimental part: as §1, §2, §3
In a further test the test system is HeLa/Bcl-xL cells. The test is described as follows: MTT cell viability assay. It counts as cell-based. As for the experimental part:
as §1, §2, §3

Another test deals with cytochrome c. The test is described as follows: Cytochrome c in cytosolic extracts of Jurkat cells (immunoblot). Format: cell-based, human. As for the experimental part:
The human Jurkat T cell line containing a neomycin resistance gene was obtained from Dr. Charles Rudin (University of Chicago). Cells were maintained in RPMI 1640 medium containing 10% heat-inactivated fetal calf serum (FCS) with penicillin (100 U/mL), streptomycin (100 μg/mL), 20 mM HEPES, 2 mM L-glutamine and G418 (1 μg/ml) purchased from Gibco BRL (Burlington, Ontario) in a CO2 incubator at 37° C. To elicit apoptosis with PDT, Jurkat cells were incubated with different amounts of liposomally formulated benzoporphyrin derivative monoacid ring A (BPD-MA, verteporfin, QLT PhotoTherapeutics, Inc., Vancouver, Canada) for one hour at 37° C. under light-protected conditions. The culture medium used for experiments was identical to that used for the passage of the cells except that FCS was used at a concentration of 5%. Experiments were conducted either in 6-well culture plates at 5×10^6 cells in a volume of 4 ml per well or in 96-well microtiter plates at 1×10^5 cells per well at 0.2 ml per well. Cells were irradiated with light of a wavelength of 690 nm delivered at 65-73 mW/sec from light emitting diodes (LED) to achieve a total light dose of 5 J/cm^2. Cells were returned to the incubator until required for analysis.
FasL and TRAIL as used were recombinant preparations. FasL was obtained from Upstate Biotechnology (Lake Placid NY) and corresponded to amino acids 103-281 of the soluble domain of human FasL. TRAIL was obtained from BIOMOL Research Laboratories (Plymouth Meeting, Pa.) and corresponded to residues 114-281 of the soluble domain of human TRAIL. FasL and TRAIL were usually added immediately following the treatment of cells with PDT, although in one series of experiments these factors were added at 1, 2 or 3 hours post-irradiation.
To obtain cytosolic extracts, cells were treated with 0.6 ml of ice-cold buffer [250 mM sucrose, 20 mM Hepes pH 7.4, 10 mM KCl, 1.5 mM MgCl2, 1 mM EGTA, 1 mM EDTA, 1 mM dithiothreitol, 1 mM PMSF and aprotinin (10 μg/ml)]. Cells were disrupted by 20 strokes with the B pestle of a Kontes™ dounce homogenizer. Supernatant collected following centrifugation at 10000×g was further centrifuged at 100000×g for 1 h at 4° C. in a Beckman Optima™ ultracentrifuge using a TL-100 rotor. (Granville et al., “Rapid cytochrome c release, activation of caspases 3, 6, 7 and 8 followed by Bap31 cleavage in HeLa cells treated with photodynamic therapy”, FEBS Lett. 437, 5-10 (1998)).
To evaluate the activation state of different caspases and the status of other cellular proteins, whole cell lysates were separated by sodium dodecyl sulphate polyacrylamide gel electrophoresis (SDS-PAGE). […]

The mark [1] stands for this setting: PDT with verteporfin at 25 or 50 ng/ml, blue fluorescent light 1 J/cm^2, 24 hours.
The mark [2] stands for this setting: TRAIL in combination with verteporfin PDT, 24 hours.
The mark [3] stands for this setting: TRAIL up to 25 ng/ml, 24 hours post-treatment.

Take “benzoporphyrin derivative monoacid ring A [verteporfin, reference compound]”: the cell viability entry in the test on HeLa/Bcl-2 cells (setting [1]), in the test with HeLa/neo cells (setting [1]) and in the test on HeLa/Bcl-xL cells (setting [1]) was “some loss in viability” in each case. Moreover, the “cytochrome c in cytosolic fractions, immediately versus three hours after photoirradiation” value with cytochrome c (verteporfin and light 5 J/cm^2) is recorded as “comparable levels of cytochrome c”. In addition, the “cytochrome c within the cytosolic fraction” value in the test with cytochrome c (verteporfin and light 5 J/cm^2, extracts prepared immediately afterward) was “immediate appearance of cytochrome c”.

For “TRAIL: recombinant, residues 114-281 of the soluble domain of human TRAIL (BIOMOL)”, the cell viability entry in the test with HeLa/Bcl-2 cells (TRAIL at 500 ng/ml, 24 hours) is “a significant degree of protection against TRAIL”; in the test on HeLa/Bcl-2 cells (setting [3]) it was “little or no loss of cell viability”; with HeLa/neo cells (TRAIL at 500 ng/ml, 24 hours), “a complete loss of viability”; with HeLa/neo cells (TRAIL at 50 and 100 ng/ml, 24 hours), “a loss in viability”; with HeLa/neo cells (setting [3]) it was “little or no loss of cell viability”; in the test on HeLa/Bcl-xL cells (TRAIL at 500 ng/ml, 24 hours), “a significant degree of protection against TRAIL”. The cell viability result with HeLa/Bcl-xL cells (setting [3]) is reported as “little or no loss of cell viability”. The “cell viability compared with PDT or TRAIL alone and with the expected additive effect” value in the test on HeLa/Bcl-2 cells (setting [2]), in the test on HeLa/neo cells (setting [2]) and with HeLa/Bcl-xL cells (setting [2]) was “significantly decreased cell viability” throughout. In the test on cytochrome c (FasL 7.5 ng/ml or TRAIL 20 ng/ml, 3 hours), the “cytochrome c in cytosolic extracts, factor alone” value is on record as “background levels of cytochrome c”. Besides, the “cytochrome c in cytosolic extracts, factor with PDT” value with cytochrome c (PDT in combination with TRAIL 20 ng/ml or FasL 7.5 ng/ml, 3 hours) is given as “readily detectable amounts of cytochrome c”.
